Measured values from patent US20250122221A1 (NANJING ZAIMING PHARMACEUTICAL CO., LTD., priority 2022, published 2025).
Like-named read-outs stand apart in the source and are kept apart here.

Tests used:
DLD-1 parental cells = experiment: Inhibition of tumour cell proliferation, 7 days, CTG; assay type: cell-based; details: Homo sapiens, read-out: DLD-1 parental cell IC50
Description: (§1) Brief introduction to the experimental principle: The compounds were co-incubated with tumour cells for 7 days, and then a CTG kit from Promega Inc was used to quantify ATP in viable cells, thus reflecting the effect of the compounds on tumour cell proliferation.
(§2) Experimental method: DLD-1 parental cells or DLD-1 BRCA2 (−/−) cells were diluted with RPMI 1640 medium containing 10% FBS, and then added to a 96-well plate (90 μL/well), with the number of cells being 600 cells/well or 1200 cells/well, respectively, and cultured overnight in a 37° C., 5% CO2 incubator. The compounds to be tested were diluted to different concentrations in dimethyl sulfoxide (DMSO), and then added to a 96-well plate. The final concentration of the compounds in the reaction system started from 25 μM, and was subjected to 4-fold gradient dilution. The concentration range of the compounds was from 25 μM to 0.0004 μM, and the final concentration of DMSO was 0.25% v/v. After 7 days of incubation, 50 μL/well CTG was added, and the mixture was incubated at room temperature for 10 minutes. Subsequently, the luminescence (Lum) signal value was read with an Envision microplate reader, and the inhibition rate and half inhibitory concentration (IC50) were calculated.
(§3) The inhibition rate was calculated, and XLfit software was used to perform fitting to obtain IC50 of the compounds.
(§4) In the experiment, a blank well and a DMSO well were set up, respectively.
(§5) Inhibition rate=100*(Lummax−Lumcompound)/(Lummax−Lummin)%, • where Lummax refers to the luminescence signal value of the well containing cells and 0.25% v/v DMSO; Lumcompound refers to the luminescence signal value of the well containing the compound and cells; and Lummin refers to the luminescence signal value of the well containing the medium and 0.25% v/v DMSO.

DLD-1 BRCA2 (−/−) cells = experiment: as above; assay type: cell-based; details: Homo sapiens, read-out: DLD-1 BRCA2 (−/−) IC50
Description: as §1, §2, §3, §4, §5

[1] = biological target: N-terminal active peptide segment (MI-N899) of POLQ with ATPase activity (Homo sapiens (Human), UniProt O75417); experiment: POLQ enzyme activity inhibition experiment (ATPase, NADH-coupled, OD 340 nm); assay type: biochemical; details: 100 nM POLQ (N), 100 μM ATP, 300 nM dT50
Description: The Envision microplate reader from Perkin Elmer Inc was used to measure the reduction of OD value of NADH at 340 nm, thus reflecting the enzyme activity. Experimental method: The POLQ enzyme was diluted to 100 nM with a reaction buffer (20 mM Tris HCl (pH 7.80), 80 mM KCl, 10 mM MgCl2, 1 mM DTT, 0.01% w/v bovine serum albumin, 0.01% v/v Tween-20, and 5% v/v glycerol). The compounds to be tested were diluted to different concentrations in dimethyl sulfoxide (DMSO) using the Echo 650 pipetting system, and transferred to a 384-well plate, 20 μL/well of 100 nM POLQ was added, and the mixture was incubated at room temperature for 15 minutes. A reaction mixture solution was formulated, and the concentration of each component in the reaction mixture solution was: 100 μM ATP, 300 nM […], 300 μM NADH, 6 mM PEP, 10 U/mL lactate dehydrogenase and 20 U/mL pyruvate kinase. 20 μL/well of reaction mixture solution was added to start the enzyme reaction. […] The concentration range was from 10 μM to 0.0005 μM, and the final concentration of DMSO in the system was 0.2% v/v. The 384-well plate was reacted at room temperature for 20 minutes, and then the OD value at 340 nm was read with an Envision microplate reader. The inhibition rate was calculated, and XLfit software was used to perform fitting to obtain IC50 of the compounds. In the experiment, a blank group and a DMSO group were set up, respectively.

[2] = 168 h, DLD-1 parental cells, 7 days of incubation, CTG
[3] = 168 h, DLD-1 BRCA2 (−/−) cells, 7 days of incubation, CTG

Sequence of N-terminal active peptide segment (MI-N899) of POLQ with ATPase activity (O75417 1-899 limits assumed): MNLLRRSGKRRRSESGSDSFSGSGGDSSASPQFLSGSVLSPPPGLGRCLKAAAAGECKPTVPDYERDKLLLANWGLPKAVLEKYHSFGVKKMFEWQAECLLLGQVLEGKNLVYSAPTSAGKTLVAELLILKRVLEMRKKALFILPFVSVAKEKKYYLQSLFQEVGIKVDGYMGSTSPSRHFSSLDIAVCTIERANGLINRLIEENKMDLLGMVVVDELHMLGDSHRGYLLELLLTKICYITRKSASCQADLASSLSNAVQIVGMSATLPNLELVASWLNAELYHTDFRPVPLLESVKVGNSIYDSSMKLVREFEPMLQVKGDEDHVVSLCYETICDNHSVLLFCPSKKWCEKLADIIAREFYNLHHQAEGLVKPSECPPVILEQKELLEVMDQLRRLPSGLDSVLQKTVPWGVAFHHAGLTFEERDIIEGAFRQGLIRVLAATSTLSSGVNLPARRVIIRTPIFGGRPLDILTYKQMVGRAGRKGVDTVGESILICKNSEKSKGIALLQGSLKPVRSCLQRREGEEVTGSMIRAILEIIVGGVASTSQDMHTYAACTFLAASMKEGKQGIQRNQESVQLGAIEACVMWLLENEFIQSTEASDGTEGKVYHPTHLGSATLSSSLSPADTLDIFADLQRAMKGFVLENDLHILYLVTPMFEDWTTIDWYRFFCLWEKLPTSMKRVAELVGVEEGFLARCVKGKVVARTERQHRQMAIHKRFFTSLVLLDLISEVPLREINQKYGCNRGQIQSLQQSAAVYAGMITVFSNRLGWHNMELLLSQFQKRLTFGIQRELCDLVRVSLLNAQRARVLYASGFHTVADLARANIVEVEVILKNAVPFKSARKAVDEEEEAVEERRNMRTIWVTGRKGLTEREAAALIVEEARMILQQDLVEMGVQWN

| Compound | IC50 (DLD-1 parental cells; [2]) [nM] | IC50 (DLD-1 BRCA2 (−/−) cells; [3]) [nM] | IC50 [1] [nM] | IC50 (DLD-1 parental cells; DLD-1, 168 h) [nM] | IC50 (DLD-1 BRCA2 (−/−) cells; DLD-1, 168 h) [nM] |
| --- | --- | --- | --- | --- | --- |
| COc1ccccc1-c1cnccc1C(=O)Nc1nc2ncc(-c3ccc(C#N)cc3)nc2s1 [Compound 9, N-(6-(4-cyanophenyl)thiazolo[4,5-b]pyrazin-2-yl)-3-(2-methoxyphenyl)pyridine-4-carboxamide] | > 10000 | < 200 | < 100 |  |  |
| COc1ccccc1-c1ccncc1C(=O)Nc1nc2ncc(-c3ccc(C#N)cc3)nc2s1 [Compound 16, N-(6-(4-cyanophenyl)thiazolo[4,5-b]pyrazin-2-yl)-4-(2-methoxyphenyl)nicotinamide] | > 10000 | 200 to 500 | < 100 |  |  |
| COc1cnc(Cl)cc1-c1cc(C)ncc1C(=O)Nc1nc2ncc(-c3ccc(C#N)cc3)nc2s1 [Compound 20, 2′-chloro-N-(6-(4-cyanophenyl)thiazolo[4,5-b]pyrazin-2-yl)-5′-methoxy-6-methyl-[4,4′-bipyridine]-3-carboxamide] | > 10000 | < 200 | < 100 |  |  |
| COc1cnc(C)cc1-c1cc(C)ncc1C(=O)Nc1nc2ncc(-c3ccc(C#N)cc3)nc2s1 [Compound 21, N-(6-(4-cyanophenyl)thiazolo[4,5-b]pyrazin-2-yl)-5′-methoxy-2′,6-dimethyl-[4,4′-bipyridine]-3-carboxamide] | > 10000 | < 200 | < 100 |  |  |
| COc1cnc(C)cc1-c1cc(C)ncc1C(=O)Nc1nc2ncc(-c3ccc(C4CC4)cn3)nc2s1 [Compound 24, N-(6-(5-cyclopropylpyridin-2-yl)thiazolo[4,5-b]pyrazin-2-yl)-5′-methoxy-2′,6-dimethyl-[4,4′-bipyridine]-3-carboxamide] | > 10000 | < 200 | < 100 |  |  |
| COc1cnc(C)cc1-c1cc(C)ncc1C(=O)Nc1nc2ncc(-c3ccc(OC(F)F)cn3)nc2s1 [Compound 25, N-(6-(5-(difluoromethoxy)pyridin-2-yl)thiazolo[4,5-b]pyrazin-2-yl)-5′-methoxy-2′,6-dimethyl-[4,4′-bipyridine]-3-carboxamide] | > 10000 | < 200 | < 100 |  |  |
| COc1ccc(Cl)cc1-c1cc(C)ncc1C(=O)Nc1nc2ncc(-c3ccc(C#N)cn3)nc2s1 [Compound 26, 4-(5-chloro-2-methoxyphenyl)-N-(6-(5-cyanopyridin-2-yl)thiazolo[4,5-b]pyrazin-2-yl)-6-methylnicotinamide] | > 10000 | < 200 | < 100 |  |  |
| COc1cnc(C)cc1-c1cc(C)ncc1C(=O)Nc1nc2ncc(-c3ccc(C(F)(F)F)cn3)nc2s1 [Compound 27, 5′-methoxy-2′,6-dimethyl-N-(6-(5-(trifluoromethyl)pyridin-2-yl)thiazolo[4,5-b]pyrazin-2-yl)-[4,4′-bipyridine]-3-carboxamide] | > 10000 | < 200 | < 100 |  |  |
| C#Cc1ccccc1-c1cnccc1C(=O)Nc1nc2ncc(-c3ccc(C#N)cc3)nc2s1 [Compound 30, N-(6-(4-cyanophenyl)thiazolo[4,5-b]pyrazin-2-yl)-3-(2-ethynylphenyl)pyridine-4-carboxamide] |  |  | < 100 | > 10000 | < 200 |
| COc1ccccc1-n1cncc1C(=O)Nc1nc2ncc(-c3ccc(C#N)cc3)nc2s1 [Compound 32, N-(6-(4-cyanophenyl)thiazolo[4,5-b]pyrazin-2-yl)-1-(2-methoxyphenyl)-1H-imidazole-5-carboxamide] | > 10000 | 200 to 500 | < 100 |  |  |
| COc1ccc(C#N)cc1-c1cc(C#N)ncc1C(=O)Nc1nc2ncc(-c3ccc(C#N)cc3)nc2s1 [Compound 33, 6-cyano-4-(5-cyano-2-methoxyphenyl)-N-(6-(4-cyanophenyl)thiazolo[4,5-b]pyrazin-2-yl)pyridine-3-carboxamide] | > 10000 | < 200 | < 100 |  |  |
| COc1cccc(F)c1-c1cnccc1C(=O)Nc1nc2ncc(-c3ccc(C#N)cc3)nc2s1 [Compound 34, N-(6-(4-cyanophenyl)thiazolo[4,5-b]pyrazin-2-yl)-3-(2-fluoro-6-methoxyphenyl)pyridine-4-carboxamide] | > 10000 | < 200 | < 100 |  |  |
| C#Cc1ccccc1-c1cc(C)ncc1C(=O)Nc1nc2ncc(-c3ccc(C#N)cc3)nc2s1 [Compound 42, N-(6-(4-cyanophenyl)thiazolo[4,5-b]pyrazin-2-yl)-4-(2-ethynylphenyl)-6-methylpyridine-3-carboxamide] | > 10000 | 200 to 500 | < 100 |  |  |
| COc1ccc(C#N)cc1-c1cc(C)ncc1C(=O)Nc1nc2ncc(-c3ccc(Cl)cc3)nc2s1 [Compound 46, N-(6-(4-chlorophenyl)thiazolo[4,5-b]pyrazin-2-yl)-4-(5-cyano-2-methoxyphenyl)-6-methylpyridine-3-carboxamide] | > 10000 | < 200 | < 100 |  |  |
| C#Cc1ccc(F)cc1-c1cc(C)ncc1C(=O)Nc1nc2ncc(-c3ccc(C#N)cc3)nc2s1 [Compound 48, N-(6-(4-cyanophenyl)thiazolo[4,5-b]pyrazin-2-yl)-4-(2-ethynyl-5-fluorophenyl)-6-methylpyridine-3-carboxamide] | > 10000 | 200 to 500 | < 100 |  |  |
| COc1ccc(C#N)cc1-c1cc(C)ncc1C(=O)Nc1nc2ncc(-c3ccc(C#N)cc3)nc2s1 [Compound 58, 4-(5-cyano-2-methoxyphenyl)-N-(6-(4-cyanophenyl)thiazolo [4,5-b]pyrazin-2-yl)-6-methylpyridine-3-carboxamide] | > 10000 | < 200 | < 100 |  |  |
| COc1cnc(Cl)cc1-c1cc(C)ncc1C(=O)Nc1nc2ncc(-c3ccc(C#N)cn3)nc2s1 [Compound 61, N-(6-(5-cyanopyridin-2-yl)thiazolo[4,5-b]pyrazin-2-yl)-2′-chloro-5′-methoxy-6-methyl-[4,4-bipyridine]-3-carboxamide] | > 10000 | < 200 | < 100 |  |  |
| COc1ccc(C#N)cc1-c1cc(C)ncc1C(=O)Nc1nc2ncc(-c3ccc(Cl)cn3)nc2s1 [Compound 62, N-(6-(5-chloropyridin-2-yl)thiazolo[4,5-b]pyrazin-2-yl)-4-(5-cyano-2-methoxyphenyl)-6-methylpyridine-3-carboxamide] | > 10000 | < 200 | < 100 |  |  |
| COc1cnc(C#N)cc1-c1cc(C)ncc1C(=O)Nc1nc2ncc(-c3ccc(Cl)cc3)nc2s1 [Compound 63, N-(6-(4-chlorophenyl)thiazolo[4,5-b]pyrazin-2-yl)-2′-cyano-5′-methoxy-6-methyl-[4,4′-bipyridine]-3-carboxamide] | > 10000 | 200 to 500 | < 100 |  |  |
| COc1cnc(C)cc1-c1cc(C)ncc1C(=O)Nc1nc2ncc(-c3ccc(C(C)(C)C#N)cn3)nc2s1 [Compound 68, N-[6-[5-(1-cyano-1-methyl-ethyl)pyridin-2-yl]thiazolo[4,5-b]pyrazin-2-yl]-4-(5-methoxy-2-methylpyridine-4-yl)-6-methyl-pyridine-3-carboxamide] | > 10000 | < 200 | < 100 |  |  |
| COc1cnc(C2CC2)cc1-c1cc(C)ncc1C(=O)Nc1nc2ncc(-c3ccc(C#N)cc3)nc2s1 [Compound 72, N-(6-(4-cyanophenyl)thiazolo[4,5-b]pyrazin-2-yl)-2′-cyclopropyl-5′-methoxy-6-methyl-[4,4′-bipyridine]-3-carboxamide] | > 10000 | < 200 | < 100 |  |  |
